Source: the supplement of paper PMC10307832

Key:
Experiment in all cases: relative viability (nuclei count vs DMSO), 5 days (fraction); higher = more cells survive
[1] = compound: C[C@@H](N)c1ccc(C(=O)Nc2ccnc3[nH]ccc23)cc1 + Cc1nc(NC(=O)N2CCC[C@H]2C(N)=O)sc1-c1ccnc(C(C)(C)C(F)(F)F)c1 [Alpelisib] (partner 2 µM)
Method in brief: (§1)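 Dosing by pin tool came one day after lung cancer cell lines were seeded in 1536-well plates, using either one drug or a fixed anchor-drug dose plus five library-drug doses (not always all listed) in √10 steps. After 5 days, nuclei were counted on 4× images. Relative viability is treated-well nuclei count divided by vehicle-well nuclei count, and values are medians of duplicate plates.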

[2] = compound: C[C@@H](N)c1ccc(C(=O)Nc2ccnc3[nH]ccc23)cc1 + CC(C)C[C@H](NC(=O)[C@H](Cc1ccccc1)NC(=O)c1cnccn1)B(O)O [Bortezomib] (partner 0.002 µM)
Method in brief: as §1

[3] = compound: C1CNCCC1C2=CC(=NN2)C3=CC=NC=C3 + O=C(CCCCCCC(=O)Nc1ccccc1)NO [Vorinostat] (partner 1 µM)
Method in brief: as §1

[4] = compound: C1CNCCC1C2=CC(=NN2)C3=CC=NC=C3 + NC(=O)Nc1cc(-c2cccc(F)c2)sc1C(=O)N[C@H]1CCCNC1 [AZD7762] (partner 0.2 µM)
Method in brief: as §1

Cell Line	relative viability ([1]; first compound 0.04 µM)	relative viability ([1]; first compound 0.1265 µM)	relative viability ([1]; first compound 0.4 µM)	relative viability ([1]; first compound 1.265 µM)	relative viability ([1]; first compound 4 µM)	relative viability ([2]; first compound 0.04 µM)	relative viability ([2]; first compound 0.1265 µM)	relative viability ([2]; first compound 0.4 µM)	relative viability ([2]; first compound 1.265 µM)	relative viability ([2]; first compound 4 µM)	relative viability ([3]; first compound 0.08 µM)	relative viability ([3]; first compound 0.8 µM)	relative viability ([3]; first compound 2.53 µM)	relative viability ([3]; first compound 8 µM)	relative viability ([4]; first compound 0.08 µM)	relative viability ([4]; first compound 0.8 µM)	relative viability ([4]; first compound 2.53 µM)	relative viability ([4]; first compound 8 µM)
201T	1.06	1.01	1.01	1.06	1.24	1.09	1.08	1.11	1.17	1.25	0.954	0.955	1.02	0.949	0.645	0.65	0.654	0.562
A-427	1.12	1.13	1.08		1.07	0.985	1.06	0.984		0.764	0.842	0.982	0.891	0.762	0.752	0.802	0.92	0.774
ABC-1	1.22	1.04	1.37	1.58	0.809	0.289	0.308	0.333	0.272	0.319	1.2	1.01	1.1	1.14	0.851	0.519	0.915	1.02
BEN	1.07	0.995	1.09	1.25	0.731	0.765	0.736	0.875	0.909	0.457	0.489	0.611	0.635	0.57	0.546	0.634	0.675	0.772
CAL-12T	1.37	1.36	1.43	1.54	0.903	1.09	1.07	1.2		1.04	0.693	0.932	0.964	0.981	0.701	0.669	0.601	0.66
ChaGo-K-1						1.01	1.07	1		0.734	0.731	0.806	0.764	0.765	0.886	0.876	0.926	0.753
EKVX	0.897	0.95	0.887	0.895	0.748	1.08	1	1.39	0.992	0.971	0.78	0.82	0.861	0.737	0.754		0.704	0.701
EMC-BAC-2	0.772	0.723	0.696	0.74	0.54	0.882	1.21	1.19	1.08	0.968		0.475	0.498	0.436	0.892	1.14	1.16	1.12
EPLC-272H	1.1	0.961	1.05		1.1	1.13	0.987	1.09		0.977	0.618	0.501	0.452	0.468	0.18	0.261	0.26	0.212
H3255	0.774	0.742	0.806	0.716	0.673	0.827	0.86	0.895	0.955	0.657	0.95		0.995	0.937	0.954	0.835	1.12	0.967
HARA	0.813	0.928	0.914	0.796	0.598	1.24	1.26	1.22	1.17	1.14	0.669	0.62	0.527	0.481	0.328	0.306	0.295	0.258
HCC-15	0.969	0.871	0.996		0.917	1.11	1.02	1.05		0.93	0.844	0.871	0.845	0.877	1.17	1.3	1.21	0.987
HCC-44	0.886	0.736	0.91	0.847	0.588	0.863	0.871	0.959	1.08	0.78	1.11	1.2	0.998	1.11	0.976	1.04	1.04	1.04
HCC-78	0.505	0.354	0.483	0.577	0.33	0.504	0.42	0.661	0.69	0.313	0.404		0.441	0.475	0.644		0.888	0.723
HCC-366	0.41	0.398	0.581		0.329	1.16	1.08	1.15		1.15	0.444	0.36	0.426	0.372	0.271	0.361	0.287	0.345
NCI-H1395	1.07	0.976	0.996		0.838						0.668	0.597	0.842	0.792	0.389	0.437	0.405	0.398
NCI-H1793	0.853	0.672	0.704		0.833						0.647		0.985	0.874	0.369		0.615	0.61
NCI-H1944	0.981	0.796	0.928		0.657						0.435	0.555	0.603	0.522	0.442	0.467	0.477	0.503
NCI-H2170	0.879	0.436	0.765	0.833	0.627						0.658	0.825	0.771	0.762	0.746	0.909	0.949	0.897
